Values joined by “and” are separate entries in the source; they are usually repeats but may differ in a detail not shown here. Identical values can stand only once.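 Test compounds were applied to cells in 96-well plates for 48 hours at 5 doses. GI50 = concentration required for 50% inhibition of growth. Definition used: TGI = concentration required for complete inhibition of growth.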 A value given as a limit tells only on which side of the number the result lay.

Some test systems named below: A498 renal; HCT-116 colon; IGROV1 ovarian; LOX IMVI melanoma; MDA-MB-231 breast; SK-MEL-2 melanoma; SNB-19 CNS; SW-620 colon.
Common to all, as to test: NCI tumour cell line growth inhibition, 48 h

In the case of `CN[C@@H]1C[C@H]2O[C@@](C)([C@@H]1OC)n1c3ccccc3c3c4c(c5c6ccccc6n2c5c31)C(=O)N[C@H]4O`, the GI50 was 0.0053 µM with A498 renal; 0.166 µM in the experiment on HCT-116 colon; 0.0188 µM with IGROV1 ovarian; 0.0227 µM in the experiment on MDA-MB-231 breast; 0.0358 µM in the experiment with SK-MEL-2 melanoma; 0.0958 µM in the experiment with SNB-19 CNS. The GI50 in the experiment on SW-620 colon was 0.104 µM. Besides, the TGI in the experiment on A498 renal turned out to be 0.0203 µM; with HCT-116 colon, 1.89 µM; in the experiment on IGROV1 ovarian it was 0.102 µM; in the experiment with LOX IMVI melanoma, 1.09 µM; in the experiment on MDA-MB-231 breast, 0.509 µM; in the experiment with SK-MEL-2 melanoma, 0.853 µM. Moreover, the TGI with SNB-19 CNS was 0.722 µM; in the experiment with SW-620 colon, more than 5.91 µM.

For the compound `Cc1ccc(C(=O)/C(=C\c2ccc([N+](=O)[O-])cc2)S(=O)Cc2ccc(F)cc2)cc1` (stereo not drawn), the GI50 in the experiment on A498 renal was 2.48 µM; with HCT-116 colon it was 0.499 µM; in the experiment with IGROV1 ovarian it was 1.5 µM; with LOX IMVI melanoma, 1.46 µM; in the experiment with MDA-MB-231 breast it was 1.83 µM; in the experiment on SK-MEL-2 melanoma it was 2.1 µM. For the same compound, the GI50 is 1.75 µM in the experiment with SNB-19 CNS and 1.56 µM with SW-620 colon. Also, the TGI in the experiment with A498 renal was determined as 6.04 µM; with HCT-116 colon, 1.79 µM; with IGROV1 ovarian, 3.05 µM; in the experiment with LOX IMVI melanoma, 2.95 µM; in the experiment with MDA-MB-231 breast, 3.68 µM; in the experiment on SK-MEL-2 melanoma, 5.2 µM. Besides, the results for the TGI in the experiment with SNB-19 CNS and in the experiment with SW-620 colon were 3.33 µM and 3.26 µM, respectively.

As to `N#Cc1ccc(C2C3=C(CCCC3=O)OC3=C2C(=O)c2ccccc2C3=O)cc1` (stereo not drawn), the GI50 in the experiment on A498 renal is 13.9 µM; in the experiment with HCT-116 colon it was 0.48 µM; with IGROV1 ovarian, 1.45 µM; in the experiment on LOX IMVI melanoma, 0.343 µM; in the experiment on MDA-MB-231 breast it was 0.447 µM; in the experiment on SK-MEL-2 melanoma, 1.35 µM. Further, the GI50 with SNB-19 CNS is 4.35 µM; in the experiment on SW-620 colon, 2.21 µM. The TGI with A498 renal worked out at 27 µM; in the experiment with HCT-116 colon, 2.11 µM; with IGROV1 ovarian, 3.46 µM; in the experiment on LOX IMVI melanoma it was 1.69 µM; in the experiment on MDA-MB-231 breast, 1.83 µM; with SK-MEL-2 melanoma, 3.33 µM. Also, the values for the TGI with SNB-19 CNS and in the experiment with SW-620 colon were 16 µM and 5.69 µM, respectively.

As to `O=C(O)c1ccc2c3c(ncnc13)-c1ccccc1C2=O`, the GI50 with A498 renal was 1.96 µM; with HCT-116 colon, 27.2 µM; in the experiment with IGROV1 ovarian, 43.9 µM; in the experiment on LOX IMVI melanoma it was 1.74 µM; in the experiment with MDA-MB-231 breast it was more than 100 µM; in the experiment with SK-MEL-2 melanoma, 20.7 µM. The results for the GI50 in the experiment with SNB-19 CNS and with SW-620 colon were 3.52 µM and 4.78 µM, respectively. Also, the TGI in the experiment on A498 renal is 10.9 µM; with HCT-116 colon, more than 100 µM; in the experiment with IGROV1 ovarian, more than 100 µM; in the experiment on LOX IMVI melanoma it was 18.5 µM; with MDA-MB-231 breast, more than 100 µM; in the experiment on SK-MEL-2 melanoma, more than 100 µM. In addition, the TGI in the experiment on SNB-19 CNS and with SW-620 colon was more than 100 µM in each case.

Regarding `c1ccc(Nn2c(CCCCCCCCc3nnc(COc4ccccc4)n3Nc3ccccc3)nnc2COc2ccccc2)cc1`, the GI50 was 37.6 µM with A498 renal; 51.7 µM in the experiment on HCT-116 colon; 17.7 µM and 46 µM with IGROV1 ovarian; 5.35 µM and 4.04 µM in the experiment with LOX IMVI melanoma; 12.4 µM with MDA-MB-231 breast; 13.8 µM and 25.5 µM in the experiment with SK-MEL-2 melanoma. In addition, the GI50 in the experiment on SNB-19 CNS is 107 µM; in the experiment with SW-620 colon, 9.55 µM and 11.8 µM. In addition, the TGI in the experiment with A498 renal was more than 300 µM; with HCT-116 colon, more than 300 µM; with IGROV1 ovarian, more than 300 µM; in the experiment on LOX IMVI melanoma it was more than 300 µM; with MDA-MB-231 breast, more than 300 µM; with SK-MEL-2 melanoma, > 63.4 µM and 252 µM. In addition, the TGI in the experiment on SNB-19 CNS and in the experiment on SW-620 colon was more than 300 µM in each case.

`Nc1nc2ccc3[nH]ncc3c2c2c1CCCC2`: the GI50 in the experiment on A498 renal is 1.64 µM; in the experiment with HCT-116 colon it was 1 µM; in the experiment with IGROV1 ovarian, 2.29 µM; in the experiment on LOX IMVI melanoma it was 1.29 µM; with MDA-MB-231 breast, 2.74 µM; in the experiment on SK-MEL-2 melanoma it was 2.12 µM. Besides, the GI50 is 2.64 µM in the experiment with SNB-19 CNS and 1.55 µM in the experiment with SW-620 colon. Besides, the TGI is 3.49 µM in the experiment on A498 renal; 5.86 µM in the experiment with HCT-116 colon; 11.2 µM in the experiment with IGROV1 ovarian; 2.82 µM in the experiment on LOX IMVI melanoma; 8.45 µM in the experiment with MDA-MB-231 breast; 5.35 µM in the experiment on SK-MEL-2 melanoma. In addition, the TGI is 10.8 µM in the experiment on SNB-19 CNS and 10 µM in the experiment with SW-620 colon.

`COc1ccc2c(c1)c1nc3cc(C)c(C)cc3nc1n2CCN(C)C`: the GI50 in the experiment with A498 renal was 1.25 µM; with HCT-116 colon, 0.354 µM; with IGROV1 ovarian it was 0.464 µM; in the experiment on LOX IMVI melanoma it was 0.375 µM; in the experiment with MDA-MB-231 breast, 1.17 µM; in the experiment on SK-MEL-2 melanoma, 1.46 µM. The GI50 with SNB-19 CNS was 0.678 µM; in the experiment on SW-620 colon, 0.405 µM. Also, the TGI is 2.58 µM in the experiment with A498 renal; 1.64 µM with HCT-116 colon; 1.97 µM with IGROV1 ovarian; 1.6 µM in the experiment with LOX IMVI melanoma; 2.76 µM with MDA-MB-231 breast; 3.29 µM in the experiment with SK-MEL-2 melanoma. Moreover, the TGI in the experiment on SNB-19 CNS is 2.32 µM; with SW-620 colon, 1.73 µM.

Consider `CCn1c2ccc(C(=O)CCCN(C)C)cc2c2cc(C(=O)CCCN(C)C)ccc21`, for which the TGI worked out at 4.51 µM with A498 renal; 11.6 µM in the experiment on HCT-116 colon; 4.23 µM with IGROV1 ovarian; 4.76 µM in the experiment with LOX IMVI melanoma; 3.37 µM in the experiment on MDA-MB-231 breast; 3.97 µM in the experiment with SK-MEL-2 melanoma. In addition, the TGI with SNB-19 CNS is 9.31 µM; in the experiment with SW-620 colon it was 3.76 µM.

Regarding `CN1C(=O)C(=Cc2cn(Cc3ccccc3)c3ccccc23)C(=O)N(C)C1=O`, the GI50 with A498 renal was 0.518 µM; with HCT-116 colon it was 11.1 µM; in the experiment on IGROV1 ovarian, 1.64 µM; in the experiment on LOX IMVI melanoma it was 35.3 µM; with MDA-MB-231 breast, 54.1 µM; in the experiment on SNB-19 CNS, more than 100 µM. Further, the GI50 in the experiment on SW-620 colon is more than 92.4 µM. Moreover, the TGI with A498 renal is 1.19 µM; with HCT-116 colon, more than 100 µM; in the experiment on LOX IMVI melanoma it was more than 100 µM; in the experiment with MDA-MB-231 breast, more than 100 µM; with SK-MEL-2 melanoma, more than 67.6 µM; in the experiment on SNB-19 CNS, more than 100 µM. The compound further yielded a TGI in the experiment on SW-620 colon of more than 100 µM.

(Values after PubChem BioAssay (NCI).)
